# Assay results from patent publication US20190290641A1, “5-HYDROXYTRYPTAMINE 1B RECEPTOR-STIMULATING AGENT FOR SKIN AND/OR HAIR REPAIR” (INSTITUT PASTEUR, priority 2016, published 2019).
# Experiments:
# 5HT1 BR = target: T1, 5HT1 BR (Mus musculus, UniProt P28334); test: Wound closure with topical 5HT1 BR agonist, with or without 5HT1 BR antagonist; type: in vivo, mice; conditions: for size of the wound: 6 days post injury, control 15.09±2.3
# T1 construct: from tissue; host or cells: live mice, skin wound (in vivo)
# T1 sequence (P28334 whole entry): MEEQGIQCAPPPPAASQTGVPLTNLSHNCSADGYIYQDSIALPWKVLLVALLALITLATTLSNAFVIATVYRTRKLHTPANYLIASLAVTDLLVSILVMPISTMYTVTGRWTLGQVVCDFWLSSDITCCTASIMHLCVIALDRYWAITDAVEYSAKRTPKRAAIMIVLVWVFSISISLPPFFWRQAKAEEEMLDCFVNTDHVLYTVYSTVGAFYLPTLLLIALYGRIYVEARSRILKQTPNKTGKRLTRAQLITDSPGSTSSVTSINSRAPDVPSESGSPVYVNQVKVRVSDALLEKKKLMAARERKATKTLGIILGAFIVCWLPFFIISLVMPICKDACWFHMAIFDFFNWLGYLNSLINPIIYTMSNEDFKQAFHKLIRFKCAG
# Experimental: Mice were treated with another 5HT1 BR agonist (CP 94253) directly on the wound (topic administration) at a concentration of 0.5 μmol, 12 h after a wound injury.
# No pretreatment was performed on this set of experiments and the drug was administered once a day for the totality of the duration of the wound closure. Controls group received PBS topically only, once a day for the total duration of the treatment.
# [1] = test system: hair and hair follicle of mice; test: Hair and skin measurements after treatment without shaving; type: in vivo; conditions: no shaving; for hair size: per os fluoxetine 18 mg/kg 6 weeks, vortioxetine 20 mg/kg 12 days; for hair follicle length / skin thickness: per os
# Experimental: (§1) All procedures in this study were approved by the Animal Care and Use committee at the Institut Pasteur (CETEA 2016-0007). Unless specified, 6 weeks old male mice C57Bl/6Rj were used in this study and housed on a 12:12 light/dark cycle in a pathogen free facility with controlled temperature and humidity. Food and drink were given ad libitum. Fluoxetine was dissolved in 0.9% NaCl and delivered either by intra peritoneal injections or per os at 18 mg/Kg. Control group received daily injections of 0.9% NaCl. For vortioxetine mice also received the product either dissolved in 96% Ethanol and then diluted 1/200 in water ad libitum at 20 mg/kg or dissolved in 96% Ethanol and then diluted 1/200 in 0.9% NaCl, final concentration 20 mg/kg body weight corrected. For topical applications vortioxetine was dissolved in 0.9% Nacl and directly applied in the wound the 3 first days and then on top on the wound the following days, every day.
# To study the possible effect of fluoxetine and vortioxetine on hair growth, fluoxetine (at 18 mg/kg) or vortioxetine (at 20 mg/kg) was provided per os to mice for 6 weeks and 12 days, respectively. […] However, when the hairs were challenged with shaving or depilation, a faster growth of hairs was observed
# [2] = test system: 8 mm biopsy wound of the skin in C57Bl/6 mice; test: Wound healing after 8 mm skin biopsy, per os treatment, macroscopic wound size; type: in vivo; conditions: for wound in average smaller than placebo: between the 4th and the 14th day post-injury; for size of the wound vs placebo in the course of wound closure: until 16 days post injury
# Experimental: as §1
# (§2) Mice were anesthetized using Isoflurane, initially in an induction chamber. The anaesthetised mice were transferred to the anaesthetic nose-cone and maintained on a heated block throughout the procedure (typically for about 5 minutes). Analgesic was administered by subcutaneous injection e.g. buprenorphine 1.5 μl of […] solution, diluted in 30 μl sterile water. The area of the biopsy was shaved. Then an area of dorsal skin was rendered sterile by swabbing with Videne surgical scrub followed by sterile water. A 8 mm sterile punch biopsy was used to create an incision through the epidermis/dermis to the muscle fascia. Any bleeding at this step was carefully avoided. The punch biopsy was removed and the skin separated from muscle connective tissues using forceps or blunted scissors. Mice were then removed from the anesthetic nose-cone and housed in sterilised cages containing paper liner and paper bedding. They were kept warm (using a cage placed on a heated mat) until fully recovered from the effects of the anaesthetic.
# In order to assess the regenerative potential of the skin, a 8 mm biopsy of the skin was performed in C57Bl/6 mice, which were either treated per os with fluoxetine at 18 mg/kg or with vortioxetine at 20 mg/kg for 6 weeks and 12 days respectively (FIG. 1A) and during the healing process.
# [3] = test system: 8 mm biopsy wound of the skin in C57Bl/6 mice; test: Histological analysis of the wound (H&E, re-epithelization, Ki67 immunostaining); type: in vivo; conditions: for cell infiltration in the dermis vs placebo / number of Ki67+ cells (proliferating cells) in the wound vs placebo / open wounded area vs placebo (H&E): 5 days post injury; for number of cycling cells vs placebo: 14 days post injury; for number of vessels: at the time of the biopsy (T0), H&E, per os treatment, placebo 4.8±1.3; for length of the epithelial tongues vs placebo: day 5 after injury; for distances between the tips of the epithelial tongues vs placebo: day 5 after wounding
# Experimental: Width of the wound and distance of the traversed epithelium were measured on H&E.
# Percent of re-epithelization was calculated according to the following formula: [distance covered by epithelium]/[distance between wound bed]×100.
# The extent of epithelialization and granulation tissue formation was determined on H&E-stained paraffin tissue sections. The length of the epithelial tongue was determined as the distance that the neo-epithelium had migrated from the margin of the wound as defined by the presence of hair follicles in non-wounded skin.
# Immunostaining was performed on formol fixed sections. Permeabilized with 0.5% Triton X-100 20 min at room temperature, washed, and blocked with 10% BSA for 30 min. Sections were incubated with primary antibodies overnight at 4° C. and with Alexa-conjugated secondary antibodies 1/250 and Hoechst for 45 minutes. Sections were then analysed using an automated axioscan (Zeiss) or inverted Observer.Z1 Apotome (Zeiss).
# To further characterize the wound closure, histological analysis was performed at the time of the biopsy (T0), 5 days post injury and 14 days post injury.
# [4] = test system: hair growth of shaved mice; test: Hair growth after shaving (clippers) or depilation (wax); type: in vivo; conditions: for hair regeneration after shaving: 5 and 10 days after shaving; for hair growth, differences between the groups: 24 days after shaving; for growth of hairs in both protocols (clippers, wax): after shaving or depilation
# Experimental: 2 different protocols were used to remove the hair from the mice. Mice were anesthetized using Isoflurane, initially in an induction chamber. The anaesthetised mice were transferred to the anaesthetic nose-cone and maintained on a heated block throughout the procedure (typically for about 5 minutes). In protocol 1, shaving was performed by cutting the hair: the mice were gently restrained manually and half of their back was shaved with portable electric hair clippers. In protocol 2, some hair was firstly removed with forceps and wax was used to unstack the hair. The wax was applied twice for maximum efficiency.
# The skin color of the mouse skin was measured three times in 5 different locations of the shaved skin randomly and averaged within a 16×16 mm2 field, using ImageJ. The luminance measured reflects the relative darkness ranging from white (0) to black (1 0 0).
# In order to study the influence of fluoxetine or vortioxetine on hair growth after a stress 2 different protocols were used on the same mouse. The half right part of the mouse back was shaved by cutting the hair with hairs clippers, and, in parallel, the hairs were removed using wax to unstack the hairs on the left part of the back (FIG. 4G). […] This was still true 10 days after shaving with longer hairs in the treated animals compared with placebo (FIG. 4J,M,N). […] These observations are in favor of a faster growth and faster regeneration but not bigger or longer hairs.
# hair growth in patients = conditions: about 100 patients, cited from earlier work
# [5] = test system: 8 mm biopsy wound of the skin in C57Bl/6 mice; test: Wound healing after 8 mm skin biopsy, topical application without pre-treatment; type: in vivo
# Experimental: as §1, §2
# To further confirm the data, the same protocol was performed on C57Bl/6 mice wounded with 8 mm biopsy, but this time the mice were not pre-treated and received topical (300 μl) applications of vortioxetine at a concentration of 20 mg/ml diluted in 96% ethanol. The placebo received the same amount of 96% ethanol. […] Six days post injury, the size of the wound was smaller in the animals topically treated with vortioxetine (FIG. 1L). Eight days post injury, the size of the wound was 10 times lower than the placebo (FIG. 1L).
# [6] = first 24 hours, per os fluoxetine 18 mg/kg 6 weeks or vortioxetine 20 mg/kg 12 days pre-treatment and during healing
# [7] = six days post injury, per os, placebo 15.67
# [8] = sixteen days post injury, per os
# [9] = sixteen days post injury, per os, placebo 0.5
SMILES,hair size [1],hair follicle length [1],skin thickness [1],wound in average smaller than placebo [2],"size of the wound vs placebo [2, 6]","size of the wound vs placebo ([2]; four days post injury, per os)","area of the wound [2, 7]","skin regeneration at the macroscopic level [2, 8]","area of the wound [2, 9]",size of the wound vs placebo in the course of wound closure ([2]; per os),cell infiltration in the dermis vs placebo [3],number of Ki67+ cells (proliferating cells) in the wound vs placebo [3],open wounded area vs placebo (H&E) [3],number of cycling cells vs placebo [3],number of vessels [3],length of the epithelial tongues vs placebo [3],distances between the tips of the epithelial tongues vs placebo [3],hair regeneration after shaving [4],hair growth vs placebo ([4]; 5 days after shaving),hair growth vs placebo ([4]; 10 days after shaving),also measured
CCCOc1ccc2[nH]cc(C3=CCNCC3)c2n1 [CP 94253],,,,,,,,,,,,,,,,,,,,,"size of the wound (5HT1 BR; topical 0.5 μmol once a day from 12 h after injury, no pretreatment): 7.7±2.5"
COc1ccc(NC(=O)c2ccc(-c3ccc(-c4noc(C)n4)cc3C)cc2)cc1N1CCN(C)CC1 [GR127935],,,,,,,,,,,,,,,,,,,,,"size of the wound (5HT1 BR; antagonist by osmotic pumps at 4 mg/kg concomitant with topical agonist CP 94253): 10.3±3.1; effect of the antagonist on the positive effects of the agonist (5HT1 BR; osmotic pumps at 4 mg/kg, concomitant with CP 94253): blocked partially"
CNCCC(Oc1ccc(C(F)(F)F)cc1)c1ccccc1 (stereo not drawn) [fluoxetine],No differences,No differences,did not change,27%,No difference,smaller,11.48 mm^2,virtually completely regenerated,0.05 mm^2,constantly smaller,more cells,higher,smaller,No differences,8.2±2.7 vessels/mm^2,significantly increased,significantly shorter,"more advanced, faster regeneration of the hairs",More advanced hair growth,longer hairs,"size of the wound vs placebo ([2]; two days post injury, per os): smaller; hair growth, differences between the groups [4]: no differences; growth of hairs in both protocols (clippers, wax) [4]: faster growth"
CCOC(=O)c1ccnc(C(=O)OCC)c1 [stemoxydin],,,,,,,,,,,,,,,,,,,,,new hairs compared to the normal average of 50 to 100 new hairs growing every day (hair growth in patients; 90 days): 4%; average new hairs (hair growth in patients; in 90 days): 1500 new hairs
"Cc1ccc(Sc2ccccc2N2CCNCC2)c(C)c1 [vortioxetine, 1-[2-(2,4-Dimethylphenylsulfanyl)phenyl]piperazine]",No differences,No differences,did not change,35%,No difference,smaller,10.10 mm^2,virtually completely regenerated,0.05 mm^2,constantly smaller,more cells,higher,smaller,No differences,8.7±3.5 vessels/mm^2,significantly increased,significantly shorter,"more advanced, faster regeneration of the hairs",More advanced hair growth,longer hairs,"hair growth, differences between the groups [4]: no differences; growth of hairs in both protocols (clippers, wax) [4]: faster growth; sizes of the wounds vs placebo ([5]; T0 to 4 days post injury, topical 300 μl of 20 mg/ml, no pre-treatment): No differences; size of the wound relative to placebo ([5]; eight days post injury, topical): 10 times lower than the placebo; size of the wound vs placebo ([5]; six days post injury, topical): smaller; wound closure ([5]; sixteen days post injury, topical, placebo 0.20 mm^2): virtually completely closed"
